This is an account of results in PMC12806454 (Quantitative Biology, 2024).

For data set [1] the following is noted: rat, in vivo, iv; cited from earlier work.
The target in another data set is Mpro of HKU1 (Human coronavirus HKU1, UniProt P0C6X2). The data set is described as follows: biochemical.
The next data set addresses Mpro of NL63 (Human coronavirus NL63, UniProt P0C6X5). The data set is described as follows: biochemical.
Another data set addresses Mpro of SARS-CoV-1 (Severe acute respiratory syndrome coronavirus, UniProt P0C6X7). The data set is described as follows: biochemical.
Another data set has as its target Mpro of 229E (Human coronavirus 229E, UniProt P0C6X1). The data set is described as follows: biochemical.
For another data set, the target named is Mpro of MERS (Middle East respiratory syndrome-related coronavirus, UniProt K9N7C7). The data set is described as follows: biochemical.
Sequence of Mpro of MERS (K9N7C7 3248-3553 limits assumed): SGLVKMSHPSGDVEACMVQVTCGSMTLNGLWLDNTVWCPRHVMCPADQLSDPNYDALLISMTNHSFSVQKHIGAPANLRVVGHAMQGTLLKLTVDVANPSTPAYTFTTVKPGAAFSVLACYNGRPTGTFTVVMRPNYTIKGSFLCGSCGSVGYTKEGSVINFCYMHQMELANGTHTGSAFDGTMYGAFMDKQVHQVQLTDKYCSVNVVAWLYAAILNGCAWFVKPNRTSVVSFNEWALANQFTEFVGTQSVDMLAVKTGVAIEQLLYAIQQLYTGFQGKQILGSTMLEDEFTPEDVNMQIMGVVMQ
The target of a further data set is Mpro of OC43 (Human coronavirus OC43, UniProt P0C6X6). The data set is described as follows: biochemical.
Sequence of Mpro of OC43 (P0C6X6 3247-3549): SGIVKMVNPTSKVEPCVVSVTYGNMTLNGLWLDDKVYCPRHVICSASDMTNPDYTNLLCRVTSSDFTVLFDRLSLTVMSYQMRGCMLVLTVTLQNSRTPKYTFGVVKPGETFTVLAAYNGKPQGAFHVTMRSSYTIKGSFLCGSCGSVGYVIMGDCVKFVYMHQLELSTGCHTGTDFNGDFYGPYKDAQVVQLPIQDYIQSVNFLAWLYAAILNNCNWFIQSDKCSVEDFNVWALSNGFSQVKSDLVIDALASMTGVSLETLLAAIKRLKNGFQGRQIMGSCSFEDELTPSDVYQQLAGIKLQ

Sequence of Mpro of NL63 (P0C6X5 2940-3242): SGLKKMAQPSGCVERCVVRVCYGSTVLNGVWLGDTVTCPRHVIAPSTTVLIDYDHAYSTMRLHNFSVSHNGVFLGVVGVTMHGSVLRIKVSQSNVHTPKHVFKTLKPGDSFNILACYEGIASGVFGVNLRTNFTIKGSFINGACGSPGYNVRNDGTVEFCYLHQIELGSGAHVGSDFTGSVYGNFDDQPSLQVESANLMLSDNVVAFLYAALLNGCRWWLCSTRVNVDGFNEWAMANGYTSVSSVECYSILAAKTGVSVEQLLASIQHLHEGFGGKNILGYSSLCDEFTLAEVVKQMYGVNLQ
Sequence of Mpro of HKU1 (P0C6X2 3335-3637): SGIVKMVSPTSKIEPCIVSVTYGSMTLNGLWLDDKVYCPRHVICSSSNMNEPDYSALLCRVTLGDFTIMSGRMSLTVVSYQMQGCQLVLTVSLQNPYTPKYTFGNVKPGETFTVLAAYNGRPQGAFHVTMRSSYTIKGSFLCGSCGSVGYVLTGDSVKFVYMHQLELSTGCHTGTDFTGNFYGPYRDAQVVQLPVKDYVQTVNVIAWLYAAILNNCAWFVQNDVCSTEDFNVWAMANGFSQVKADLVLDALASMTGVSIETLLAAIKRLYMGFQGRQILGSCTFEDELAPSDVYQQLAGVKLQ
Sequence of Mpro of 229E (P0C6X1 2966-3267): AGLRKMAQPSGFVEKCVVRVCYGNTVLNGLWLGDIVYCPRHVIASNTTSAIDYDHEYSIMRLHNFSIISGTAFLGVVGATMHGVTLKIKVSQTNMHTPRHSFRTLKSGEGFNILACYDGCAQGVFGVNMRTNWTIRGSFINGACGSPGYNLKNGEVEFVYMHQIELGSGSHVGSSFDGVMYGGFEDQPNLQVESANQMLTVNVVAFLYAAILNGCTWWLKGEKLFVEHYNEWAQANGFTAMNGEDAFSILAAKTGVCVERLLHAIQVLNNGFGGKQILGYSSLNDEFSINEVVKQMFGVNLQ

In the case of `CC(C)(C)[C@H](NC(=O)C(F)(F)F)C(=O)N1C[C@H]2[C@@H]([C@H]1C(=O)N[C@H](C#N)C[C@@H]1CCNC1=O)C2(C)C` [Nirmatrelvir, nirmatrelvir], the half-life in data set [1] is on record as 0.5 h.

Take `CC(C)CC(NC(=O)OCc1ccccc1)C(=O)NC(CC1CCNC1=O)C(O)S(=O)(=O)O` (centres unmarked) [GC376]: the IC50 against Mpro of HKU1 is 73.3 nM; against Mpro of NL63, 438 nM.

Turning to `O=C(NC1CCCC1)C(=O)[C@H](C[C@@H]1CCNC1=O)NC(=O)[C@@H]1[C@H]2CCC[C@H]2CN1C(=O)[C@@H](NC(=O)C(F)(F)F)C1CCCCC1` [Leritrelvir, leritrelvir], the half-inhibitory concentration (IC50) against Mpro of HKU1 came to 52.3 nM; at Mpro of NL63 it was 272 nM; on Mpro of SARS-CoV-1 it was 73 nM; at Mpro of 229E, 101 nM; on Mpro of MERS, 945 nM; against Mpro of OC43 it was 53.2 nM. Moreover, the half-life in data set [1] is 4.8 h.

Regarding `Cn1cnc(Cn2c(=O)[nH]/c(=N\c3cc4cn(C)nc4cc3Cl)n(Cc3cc(F)c(F)cc3F)c2=O)n1` [Ensitrelvir, ensitrelvir], the half-life in data set [1] is 2.4 h.

As a reminder, the half-life is how long it takes for the measured level to halve. What is called IC50 is the concentration that gives 50% inhibition. A low value points to greater potency.
